Values after ≈ are worked out from the molar mass of the structure shown. Read-outs that look alike come from different tables or passages of the source.
How the values were obtained:
[1] = test system: Fibronectin secretion from bladder carcinoma cells (HTB-9); experiment: Fibronectin secretion (Western blot), HTB-9 cells; type: cell-based, human; details: 10 ug/ml
[2] = test system: Fibronectin secretion from ES2 cells; experiment: Fibronectin secretion (Western blot), ES2 cells; type: cell-based, human; details: for Fibronectin secreted into medium, % of DMSO control: 24 hours; for inhibition at 10 µg/mL: Homo sapiens, ES-2, ES2 cells
Experimental: Inhibition of Fibronectin secretion is physiological and the determination of its quantity is based on the following criteria: • 1. Fibronectin is secreted from viable cells. Only cell with over 85% viable cells after drug-treatment are employed in these experiments. The viable cells were determined by MTT assay. • 2. For comparison, the immuno-band intensity from each samples are normalized with cell mass. The cell mass was determined by the MTT assay and is assigned as a MTT unit for each cell sample.
Cells: ES2 cells were grew in T-25 flask with RPMI 1640 medium over night before drug-treatment. Drug-treatment: cells cultures were replaced with fresh RPMI medium with Xanifolia-Y (10 ug/ml final concentration) or DMSO (as control) at 0 hour. At 1, 2, 4, 8 and 24 hour, aliquot of culture medium was taken out for Fibronectin determination. Fibronectin was determined by Western blot with monoclonal antibody (SIGMA) specific to human Fibronectin only.
Drug-treatment: cells cultures were replaced with fresh RPMI medium containing Xanifolia-Y (10 ug/ml final concentration) or DMSO (as control) at 0 hour. At 4 hours (A) or 8 hour (B), culture medium was replaced with fresh culture medium without drug. At 2, 4, 8 and 24 hour, aliquot of culture medium was taken out for Fibronectin determination. Fibronectin (FN) was determined by Western blot with monoclonal antibody (SIGMA) specific only to human Fibronectin.
(§1) Drug-treatment: cells cultures were replaced with fresh RPMI medium containing Xanifolia-Y (10 ug/ml final concentration) or DMSO (as control) at 0 hour. At 2, and 18 hour, aliquot of culture medium was taken out for Fibronectin determination (Western blot method). Cell viability at 18 hours was determined by MTT assay. Cultures were replaced with RPMI medium with MTT and incubated for an hour. The formation of formazan was dissolved in DMSO and OD at 570 nm was measured.
Cells and Drug-treatment: same as previous experiments. After 7 or 24 hours, aliquot of culture medium was taken out for Fibronectin determination (Western blot method). Cell viability at 24 hours was determined by MTT assay.
Cells: ES2 cells were grew in RPMI 1640 medium over night before drug-treatment. Drug-treatment: cells cultures were replaced with fresh RPMI medium containing DMSO (as control) [D]; Xanifolia-Y (10 ug/ml) [Y]; or Paclitaxel 10 or 50 ng/ml [T10, ro T50]. After 24 hours, aliquot of culture medium was taken out for Fibronectin determination (Western blot method). Cell viability at 24 hours was determined by MTT assay.
The amount of Fibronectin secreted by cells into medium was determined by Western blot assay. The amount of Fibronectin secreted per cells basis was determined by dividing the Western-band intensity with the MTT unit.
Western Blot: Spent culture medium (0.6 ml) was mixed with SDS sample buffer (0.2 ml), boiled for 3 minutes before loading to SDS gel. Samples (60 ul/lane) were applied to a 6% SDS gel and electrophoresis was conducted with 100 volts for 2 hours. Protein was transferred to a nitrocellulose paper electrophoretically (30 min at 100 volts). The Western blot was incubated with the first antibody (mouse anti-FN, specific to human FN, SIGMA F0916) and second antibody (Anti-mouse IgG AP conjugated, Promega S3721). The immunobands were developed with BCIP/NBT color development system (Promega S3771).

[3] = test system: Fibronectin secretion from skin SK-Mel-5 cells; experiment: Fibronectin secretion (Western blot), SK-MEL-5 cells; type: cell-based, human
[4] = test system: Fibronectin secretion from lung carcinoma cells (H460); experiment: Fibronectin secretion (Western blot), H460 cells; type: cell-based, human; details: 10 ug/ml
[5] = test system: Fibronectin secretion from brain glioblastoma T98G cells; experiment: Fibronectin secretion (Western blot), T98G cells; type: cell-based, human
[6] = test system: Fibronectin secretion from liver HepG2 cells; experiment: Fibronectin secretion (Western blot), HepG2 cells; type: cell-based, human; details: 10 ug/ml; for % inhibition of Fibronectin secretion: HepG2 cells
tumor growth = experiment: MTT anticancer activity of Y, X and hydrolysis products (FIG. 4C); type: cell-based
Experimental: (§2) MTT Assay. The procedure for MTT assay followed the method described by Carmichael et al. (1987) with modifications. The cells were seeded into a 96-well plate at concentration of 10,000/well for HTB-9, HeLa, H460, HCT116, T98G and OVCAR-3), 15,000/well for DU145, MCF-7, HepG2 and U2OS), and 40,000/well for K562 for 24 hours before drug-treatment. The cells were then exposed to the drugs for 48 hours (72 hours for HepG2 and U2OS, and 96 hours for MCF-7). After the drug-treatment, MTT (0.5 mg/mL) was added to cultures and incubated for an hour. The formazan (product of the reduction of tetrazolium by viable cells) formed and was dissolved with DMSO and the O.D. at 490 nm, and was measured by an ELISA reader. The MTT level of the cells before drug-treatment was also measured (T0). The % cell-growth (% G) is calculated as: % G=(TD−T0/TC−T0)×100(1), where TC or TD represents O.D. readings of control or drug-treated cells. When T0>TD, then the cytotoxicity (LC) expressed as % of the control is calculated as: % LC=(TD−T0/T0)×100(2).
(A) Alkaline Hydrolysis of Xanifolia-Y: 20 mg of Xanifolia-Y was dissolved in 0.5 mL of 1M NaOH. The solution was incubated in an 80° C. water bath for 4 hours. It was cooled to room temperature before being neutralized with 0.5 mL 1 N HCl (adjusted pH to about 3). The mixture was extracted with 2 mL 1-butanol 3 times. The butanol fractions were collected and lyophilized. The hydrolyzed saponin was further purified with HPLC in a C-18 column eluted with 25% acetonitrile.
(B) Acid Hydrolysis of Xanifolia-Y: 15 mg Xanifolia-Y was dissolved in 1 mL of Methanol. 1 mL of 2N HCl was then added. The mixture was refluxed in an 80° C. water bath for 5 hours. The solution was then neutralized by adding 2 mL of 1N NaOH (to a final pH 3-4). The aglycone was then extracted with ethylacetate 3 mL×3. The extracts were collected and pooled. Further isolation of aglycone (sugar-removed Xanifolia-Y) was achieved by HPLC with isocratic elution of 80% acetonitrile.

ES2(ovarian) cells = experiment: MTT assay ES2; type: cell-based, human; details: for viable cells by MTT units vs DMSO control: 24 hours
Experimental: as §2
Methods: ES2 cells were exposed to (i) Xanifolia-Y with concentrations of 40, 20, 10, 5, 2.5, and 1.25 ug/ml; or (ii) Paclitaxel with concentrations of […]; or (iii) Combined Xanifolia-Y and Paclitaxel with concentrations of each drug in same order (for example, 40 ug/ml Y plus 10 ng/ml T; 20 ug/ml Y plus 5 ng/ml T, etc. please see FIG. 28). Cells growth under these conditions was determined by the MTT assay.
as §1

[7] = test system: swelling of rats' feet induced by Carrageenin; experiment: Carrageenin-induced swollen feet model; type: in vivo, SD rats; details: positive control 10.0 mg/kg fed once;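 note: percent increase in foot volume over pre-inflammation volume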
Experimental: SD rats, male, weighing 163±18 g were used in the experiment. The tested animals are allowed to acclimate for a week. The rats drink water freely. The rats were randomly divided into 5 groups: control, positive control and 3 test groups, and each group had 8 rats. The dose for 3 groups of rats are 10, 20 and 40 mg/kg. Indometacin for the positive control is 10 mg/kg and fed once after modeling. The dose of CMC-Na for the control group is the same as each test group and fed into the stomach once a day before modeling for 5 days. The tested drug was fed into the stomach 10 minutes before the animal modeling (1 mL/100 g). The volumes of right foot of each rat were measured 0.5, 1, 2 and 4 hours before and after modeling. The volumes of the right hind feet were measured at a different time, 10 minutes after inflammation induced by subcutaneous injection (with syringe needle 7) of 0.05 mL of the 1% of Carrageenin/normal saline mixture into the feet. The Rate of swelling of the feet was calculated, compared with the controls and subject to a student t-test. Rate of swelling (E) (%)=Ltn−Lt0/Lt0×100% • Ltn: volume of foot after the inflammation • Lt0: volume of foot before the inflammation

CC=C(C)C(=O)OC1C(OC(=O)c2ccccc2)C(C)(C)CC2C3=CCC4C5(C)CCC(OC6OC(C(=O)OC)C(O)C(OC7OCC(O)C(O)C7O)C6OC6OC(CO)C(O)C(O)C6O)C(C)(C)C5CCC4(C)C3(C)CC(O)C21CO [Ba4, 3-O-[β-D-galactopyranosyl(1→2)]-β-D-xylopyranosyl (1→3)-β-D-methylglucuronopyranosyl-21-O-benzoyl, 22-O-angeloyl-3β, 15α, 21β, 22α, 28-pentahydroxyolean-12-ene]
% inhibition of Fibronectin secretion [1]: 30% | % inhibition of Fibronectin secretion ([2]; ES2 cells, 10 ug/ml): 28% | % inhibition of Fibronectin secretion ([3]; 10 ug/ml): 10% | % inhibition of Fibronectin secretion ([4]; H460 cells): 18% | % inhibition of Fibronectin secretion ([5]; 10 ug/ml): 24% | % inhibition of Fibronectin secretion [6]: 28%

CC1O[C@@H](OC2[C@H](OC3[C@H](O[C@H]4C(O[C@@H]5OC(CO)[C@H](O)[C@@H](O)C5O)[C@H](O[C@H]5CC[C@@]6(C)C(CC[C@]7(C)C6CC[C@]68O[C@H](O)[C@]9(C6CC(C)(C)[C@@H](O)[C@@H]9O)[C@H](O)C[C@]87C)C5(C)C)OC(C(=O)O)[C@H]4O)OC(CO)[C@H](O)[C@H]3O)OC(C)[C@H](O)[C@@H]2O)C(O)[C@@H](O)[C@H]1O (some centres unmarked) [AKOH-Mb5]
anticancer activity after alkaline hydrolysis (tumor growth): lost anticancer activity

beta-Escin [reference compound]
% inhibition of Fibronectin secretion [1]: 47% | % inhibition of Fibronectin secretion ([2]; ES2 cells, 10 ug/ml): 7% | Fibronectin secreted / FN band intensity, % of DMSO control ([2]; ES2 cells, 10 ug/ml): 93% | % inhibition of Fibronectin secretion ([2]; ES2 cells, 10 ug/ml, listed as β-ES): 19% | % inhibition of Fibronectin secretion ([2]; ES2 cells, 20 ug/ml): 48% | Fibronectin secreted / FN band intensity, % of DMSO control ([2]; ES2 cells, 20 ug/ml): 52% | % inhibition of Fibronectin secretion ([3]; 20 ug/ml): 17% | growth of cells compared to the DMSO control (MTT) (ES2(ovarian) cells; ES2, 10 ug/ml (F13)): 90% | growth of cells compared to the DMSO control (MTT) (ES2(ovarian) cells; ES2, 20 ug/ml (F13)): 82% | % inhibition of Fibronectin secretion ([5]; 20 ug/ml): 66% | % inhibition of Fibronectin secretion ([6]; listed as ES): have inhibition effect | % inhibition of Fibronectin secretion ([6]; listed as β-ES): 44%

CC(=O)O[C@H]1C(=O)[C@@]2(C)[C@H]([C@H](OC(=O)c3ccccc3)[C@]3(O)C[C@H](OC(=O)[C@H](O)[C@@H](NC(=O)c4ccccc4)c4ccccc4)C(C)=C1C3(C)C)[C@]1(OC(C)=O)CO[C@@H]1C[C@@H]2O [Paclitaxel, reference compound]
Fibronectin secreted into medium, % of DMSO control ([2]; ES2 cells, 10 ng/ml): 105% | Fibronectin secreted into medium, % of DMSO control ([2]; ES2 cells, 50 ng/ml): 97% | inhibition of Fibronectin secretion ([2]; ES2 cells, 10 to 50 ng/ml): no inhibition | viable cells by MTT units vs DMSO control (ES2(ovarian) cells; ES2, 10 ng/ml): 94% | viable cells by MTT units vs DMSO control (ES2(ovarian) cells; ES2, 50 ng/ml): 91% | IC50 (ES2(ovarian) cells; ES2 cells, used singly): 1.25 ng/mL (≈ 1.46 nM) | IC50 (ES2(ovarian) cells; Homo sapiens, ES-2, ES2 cells, combined with Xanifolia-Y, read-out: IC50 value for Paclitaxel when both drugs were used): 0.625 ng/mL | IC50 (ES2(ovarian) cells; Homo sapiens, ES-2, ES2 cells, used singly, read-out: IC50): 1.5 ng/mL (≈ 1.76 nM)

C/C=C(/C)C(=O)O[C@H]1[C@H](OC(=O)/C(C)=C\C)[C@@]2(CO)C(CC1(C)C)C1=CCC3[C@@]4(C)CC[C@H](O[C@@H]5OC(C(=O)O)[C@@H](O)C(O)C5O[C@@H]5OC(CO)[C@H](O)C(O)C5O)C(C)(C)C4CC[C@@]3(C)[C@]1(C)[C@@H](O)[C@H]2O (some centres unmarked) [Xanifolia Y5]
inhibition at 10 µg/mL ([2]; 10 ug/ml): 68% | % inhibition of Fibronectin secretion [6]: have inhibition effect

C/C=C(/C)C(=O)O[C@H]1[C@H](O)[C@@]2(COC(=O)C(C)CC)C(CC1(C)C)C1=CCC3[C@@]4(C)CC[C@H](O[C@@H]5OC(C(=O)O)[C@@H](O)C(O[C@@H]6O[C@@H](CO)C(O)C6O)C5O[C@@H]5OC(CO)[C@H](O)C(O)C5O)C(C)(C)C4CC[C@@]3(C)[C@]1(C)[C@@H](O)[C@H]2O (stereo partly drawn) [Xanifolia Y7, 3-O-[β-D-galactopyranosyl-(1→2)]-α-L-arabinofuranosyl-(1→3)-β-D-glucuronopyranosyl-21-O-angeloyl-28-O-2-methylbutanoyl-3β, 15α, 16α, 21β, 22α, 28-hexahydroxyolean-12-ene]
inhibition at 10 µg/mL ([1]; Homo sapiens): 60% | inhibition at 10 µg/mL ([2]; 10 ug/ml): 34% | inhibition at 10 µg/mL ([4]; Homo sapiens, NCI-H460, H460 cells): 18% | inhibition at 10 µg/mL ([5]; Homo sapiens, T98G, 10 ug/ml): 24% | inhibition at 10 µg/mL ([6]; Homo sapiens, HepG2, HepG2 cells): 10%

COc1ccc2c(c1)c(CC(=O)O)c(C)n2C(=O)c1ccc(Cl)cc1 [Indometacin, reference compound]
Swelling rate after administration (%) ([7]; 0.5 hour): 11.8% | Swelling rate after administration (%) ([7]; 1 hour): 14.7% | Swelling rate after administration (%) ([7]; 2 hours): 12.8% | Swelling rate after administration (%) ([7]; 4 hours): 10.7%

— patent US10213451B2, “Methods and compounds for modulating the secretion or expression of adhesion proteins or angiopoietins of cells” (PACIFIC ARROW LIMITED, priority 2004, dated 2019)
